Assay results: the supplement of paper PMC8882468

Assays:
Test in all cases: CTG-3D luminescence at 96 h relative to day-0 seeding control (ratio to day 0); higher = more growth / less cytotoxicity; PDxO 3D drug screen, 96 h, CTG-3D normalised to day-0 seeding control.
HCI-023 = test system: HCI-023 (organoid from a triple-negative breast cancer xenograft)
MDA-MB-231 = test system: MDA-MB-231
HCI-017.E2 = test system: HCI-017.E2 (organoid from an ER-positive breast cancer xenograft)
HCI-002 = test system: HCI-002 (organoid from a triple-negative breast cancer xenograft)
HCI-025 = test system: HCI-025 (organoid from a breast cancer xenograft)
HCI-015 = test system: HCI-015 (organoid from a triple-negative breast cancer xenograft)

C=CC(=O)N1CCC[C@@H](n2nc(-c3ccc(Oc4ccccc4)cc3)c3c(N)ncnc32)C1 [ibrutinib]
CTG-3D luminescence at 96 h
Conditions | 12.5 pM | 0.00025 µM | 0.005 µM | 0.1 µM | 1 µM | 10 µM | 100 µM | 625 fM
HCI-002, days in culture: 62 | 2.83 | 2.33 | 2.92 | 2.77 | 1.54 | 1.45 | -0.0218 | 2.97
HCI-002, days in culture: 82 | 3.16 | 2.97 | 2.43 | 2.38 | 1.77 | 1.32 | -0.0175 | 2.68
HCI-002, days in culture: 91 | 3.98 | 3.44 | 3.33 | 3.61 | 2.11 | 1.75 | -0.0238 | 3.98
HCI-002, days in culture: 191 | 2.76 | 2.47 | 2.21 | 2.23 | 1.69 | 1.34 | -0.014 | 2.82
HCI-002, days in culture: 209 | 2.33 | 2.16 | 2.33 | 1.87 | 1.63 | 1 | -0.0179 | 2.34
HCI-002, days in culture: 227 | 5.2 | 5.07 | 4.64 | 4.59 | 2.61 | 2.26 | -0.0321 | 5.19
HCI-015, days in culture: 172 | 2.54 | 1.92 | 2.32 | 1.06 | 1.37 | 1.14 | 7.09e-05 | 2.36
HCI-015, days in culture: 191 | 1.91 | 1.22 | 1.64 | 1.03 | 0.827 | 0.68 | 0.00148 | 1.52
HCI-015, days in culture: 218 | 1.88 | 1.37 | 1.76 | 1.6 | 1.4 | 1.33 | 0.00244 | 1.81
HCI-017.E2, days in culture: 85 | 2.54 | 2.97 | 2.31 | 2.54 | 1.88 | 1.6 | 0.0338 | 2.31
HCI-023, days in culture: 111 | 1.24 | 1.25 | 1.32 | 1.2 | 1.03 | 1.02 | -0.00294 | 1.29
HCI-023, days in culture: 128 | 1.42 | 1.43 | 1.55 | 1.48 | 1.26 | 1.03 | -0.00478 | 1.54
HCI-025, days in culture: 172 | 2.25 | 1.2 | 2.79 | 1.4 | 1.8 | 0.991 | -0.0111 | 2.37
HCI-025, days in culture: 209 | 2.38 | 2.13 | 2.26 | 2.09 | 1.86 | 1.41 | -0.0107 | 1.71
HCI-025, days in culture: 218 | 1.78 | 2.33 | 1.93 | 1.68 | 1.57 | 1.75 | -0.00991 | 1.84

CTG-3D luminescence at 96 h
Conditions | 12.5 pM | 0.00025 µM | 0.005 µM | 0.1 µM | 1 µM | 10 µM | 100 µM | 625 fM
HCI-017.E2 | 1.84 | 2.24 | 2.27 | 2.21 | 2.29 | 1.49 | 0.00316 | 2.16
MDA-MB-231 | 4.49 | 4.45 | 4.49 | 4.64 | 4.82 | 4.66 | -0.0103 | 4.55

O=C(/C=C/c1cccnc1)NCCCCC1CCN(C(=O)c2ccccc2)CC1 [FK866]
CTG-3D luminescence at 96 h
Conditions | 12.5 pM | 0.00025 µM | 0.005 µM | 0.1 µM | 1 µM | 10 µM | 100 µM | 625 fM
HCI-002, days in culture: 62 | 2.68 | 2.55 | 1.43 | 0.0472 | 0.0154 | 0.014 | 0.0284 | 3.07
HCI-002, days in culture: 82 | 2.77 | 3.14 | 0.508 | 0.0661 | 0.0553 | 0.0327 | 0.0409 | 3.06
HCI-002, days in culture: 91 | 3.92 | 3.63 | 1.55 | 0.0716 | 0.0287 | 0.025 | 0.0475 | 4.36
HCI-002, days in culture: 191 | 2.81 | 2.7 | 0.424 | 0.0805 | 0.0595 | 0.0599 | 0.0916 | 2.43
HCI-002, days in culture: 209 | 2.49 | 2.33 | 1.05 | 0.0589 | 0.0401 | 0.0272 | 0.062 | 2.4
HCI-002, days in culture: 227 | 5.05 | 5.39 | 3.02 | 0.104 | 0.0406 | 0.0434 | 0.0754 | 5.65
HCI-015, days in culture: 172 | 2.55 | 0.705 | 0.752 | 0.206 | 0.213 | 0.158 | 0.29 | 2.38
HCI-015, days in culture: 191 | 2.04 | 1.32 | 0.805 | 0.141 | 0.243 | 0.167 | 0.215 | 1.64
HCI-015, days in culture: 218 | 1.79 | 1.55 | 0.648 | 0.169 | 0.147 | 0.133 | 0.158 | 1.86
HCI-017.E2, days in culture: 85 | 2.98 | 3.2 | 2.28 | 0.984 | 0.928 | 0.889 | 0.391 | 2.15
HCI-023, days in culture: 111 | 1.12 | 1.65 | 0.244 | 0.0924 | 0.0716 | 0.0618 | 0.0864 | 1.25
HCI-023, days in culture: 128 | 1.73 | 1.55 | 0.315 | 0.153 | 0.103 | 0.135 | 0.123 | 1.8
HCI-025, days in culture: 172 | 3.12 | 0.0766 | 0.075 | 0.0447 | 0.0404 | 0.0184 | -0.00051 | 2.06
HCI-025, days in culture: 209 | 2.08 | 1.82 | 0.314 | 0.0825 | 0.0624 | 0.0413 | 0.0255 | 2.16
HCI-025, days in culture: 218 | 1.78 | 2.01 | 0.0772 | 0.031 | 0.013 | 0.00874 | 0.00784 | 1.85

CTG-3D luminescence at 96 h
Conditions | 12.5 pM | 0.00025 µM | 0.005 µM | 0.1 µM | 1 µM | 10 µM | 100 µM | 625 fM
HCI-017.E2 | 1.61 | 1.98 | 0.93 | 0.759 | 0.847 | 0.866 | 0.328 | 1.39
MDA-MB-231 | 4.37 | 4.45 | 3.77 | 0.298 | 0.237 | 0.236 | 0.146 | 4.49
